Data taken from US12291529B2, “Heterocyclic GLP-1 agonists” (Gasherbrum Bio, Inc., priority 2023, dated 2025).

Biological target: GLP-1 Receptor (Homo sapiens, UniProt P43220)
Assay: GLP-1R agonist cAMP stimulation assay (HEK293/GLP1R/CRE-LUC cells, Cisbio cAMP dynamic 2 kit)
Type: cell-based
Conditions: Table 3, HEK293/GLP1R/CRE-LUC cells, 30 min
Summary of the method: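 cAMP was measured by HTRF (d2/cryptate, 1 h RT, 665 and 615 nm). Beforehand, compounds in half-log series were incubated 30 min at 37 °C with GLP-1R/CRE-Luc HEK293 cells (1000 per well) in IBMX (0.5 mM)-containing DPBS/BSA. Activity scaled between vehicle and maximal control.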

Chain of GLP-1 Receptor (P43220 24-463, species assumed): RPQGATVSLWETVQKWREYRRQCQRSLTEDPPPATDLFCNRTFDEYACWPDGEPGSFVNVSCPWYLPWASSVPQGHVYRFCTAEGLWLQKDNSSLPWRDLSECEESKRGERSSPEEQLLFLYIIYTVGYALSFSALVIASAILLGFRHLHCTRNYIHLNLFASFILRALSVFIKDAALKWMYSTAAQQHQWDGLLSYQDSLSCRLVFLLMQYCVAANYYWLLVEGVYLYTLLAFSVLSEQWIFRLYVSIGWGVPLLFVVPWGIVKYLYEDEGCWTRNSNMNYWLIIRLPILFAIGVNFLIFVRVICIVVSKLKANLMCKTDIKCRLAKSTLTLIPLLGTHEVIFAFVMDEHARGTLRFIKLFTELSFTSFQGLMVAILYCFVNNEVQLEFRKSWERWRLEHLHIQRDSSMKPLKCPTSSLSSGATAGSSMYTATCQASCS

Structure (SMILES) | EC50 [nM]
Cc1cc(-n2nc3c(c2-n2ccn(-c4cc5c(cc4F)S(C)(=O)=NC5)c2=O)[C@H](C)N(C(=O)c2cc4cc([C@H]5CCOC(C)(C)C5)ccc4n2[C@@]2(c4noc(=O)[nH]4)C[C@@H]2C)CC3)cc(C)c1F (single isomer, unassigned) [Compound 199] | 0.01
Cc1cc(-n2nc3c(c2-n2ccn(-c4ccc5c(c4Cl)CN=S5(C)=O)c2=O)[C@H](C)N(C(=O)c2cc4cc([C@H]5CCOC(C)(C)C5)ccc4n2[C@@]2(c4noc(=O)[nH]4)C[C@@H]2C)CC3)cc(C)c1F (single isomer, unassigned) [Compound 201] | 0.011
CCS(=O)(=NC)c1ccc(-n2ccn(-c3c4c(nn3-c3cc(C)c(F)c(C)c3)CCN(C(=O)c3cc5cc(C6CCOCC6)ccc5n3Cc3ccc(C)nc3)[C@H]4C)c2=O)c(F)c1 (single isomer, unassigned) [Compound 171] | 8.8
Cc1cc(-n2nc3c(c2-n2ccn(-c4ccc5c(c4F)CN=S5(C)=O)c2=O)[C@H](C)N(C(=O)c2cc4cc([C@H]5CCOC(C)(C)C5)ccc4n2[C@@]2(c4noc(=O)[nH]4)C[C@@H]2C)CC3)cc(C)c1F (single isomer, unassigned) [Compound 187] | 0.01
Cc1cc(-n2nc3c(c2-n2ccn(-c4ccc(C5(S(C)(=N)=O)CC5)cc4)c2=O)[C@H](C)N(C(=O)c2cc4cc(C5CCOCC5)ccc4n2[C@@]2(c4noc(=O)[nH]4)C[C@@H]2C)CC3)cc(C)c1F (single isomer, unassigned) [Compound 177] | 0.026
Cc1cc(-n2nc3c(c2-n2ccn(-c4ccc(S5(=O)=NCCC5)cc4)c2=O)[C@H](C)N(C(=O)c2cc4cc(C5CCOCC5)ccc4n2C2(c4nsc(=O)[nH]4)CC2)CC3)cc(C)c1F (single isomer, unassigned) [Compound 131] | 0.05
Cc1cc(-n2nc3c(c2-n2ccn(-c4ccc(S(C)(=N)=O)cc4)c2=O)[C@H](C)N(C(=O)c2cc4cc(C5CCOCC5)ccc4n2[C@@]2(c4noc(=O)[nH]4)C[C@@H]2C)CC3)cc(C)c1F (some centres unmarked) [Compound 110] | 0.028
CC1=Cc2c(ccc(-n3ccn(-c4c5c(nn4-c4cc(C)c(F)c(C)c4)CCN(C(=O)c4cc6cc([C@H]7CCOC(C)(C)C7)ccc6n4[C@@]4(c6noc(=O)[nH]6)C[C@@H]4C)[C@H]5C)c3=O)c2F)S(=O)(C2CC2)=N1 (single isomer, unassigned) [Compound 210] | 0.067
Cc1cc(-n2nc3c(c2-n2ccn(-c4ccc5c(c4)CCN=S5(C)=O)c2=O)[C@H](C)N(C(=O)c2cc4cc(C5CCOCC5)ccc4n2[C@@]2(c4noc(=O)[nH]4)C[C@@H]2C)CC3)cc(C)c1F (stereo partly drawn) [Compound 108, 6-{3-[(4S)-2-(4-fluoro-3,5-dimethylphenyl)-5-({1-[(1S,2S)-2-methyl-1-(5-oxo-4H-1,2,4-oxadiazol-3-yl)cyclopropyl]-5-(3,4,5,6-tetrahydro-2H-pyran-4-yl)indol-2-yl}carbonyl)-4-methyl-4,5,6,7-tetrahydropyrazolo[4,3-c]pyridin-3-yl]-2-oxoimidazol-1-yl}-1-methyl-3,4-dihydro-1λ^6-benzo[2,1-e][1,2]thiazin-1-one] | 0.013
CN=S(=O)(c1ccc(-n2ccn(-c3c4c(nn3-c3ccc(F)c(C5CC5)c3)CCN(C(=O)c3cc5cc([C@H]6CCOC(C)(C)C6)ccc5n3[C@@]3(c5noc(=O)[nH]5)C[C@@H]3C)[C@H]4C)c2=O)c(F)c1C)C1CC1 (single isomer, unassigned) [Compound 217] | 0.2
CC1=Cc2cc(-n3ccn(-c4c5c(nn4-c4cc(C)c(F)c(C)c4)CCN(C(=O)c4cc6cc([C@H]7CCOC(C)(C)C7)ccc6n4[C@@]4(c6noc(=O)[nH]6)C[C@@H]4C)[C@H]5C)c3=O)ccc2S(C)(=O)=N1 (single isomer, unassigned) [Compound 207] | 0.02
Cc1cc(-n2ccn(-c3c4c(nn3-c3cc(C)c(F)c(C)c3)CCN(C(=O)c3cc5cc([C@H]6CCOC(C)(C)C6)ccc5n3[C@@]3(c5noc(=O)[nH]5)C[C@@H]3C)[C@H]4C)c2=O)c(F)cc1S(=N)(=O)C1CC1 (single isomer, unassigned) [Compound 190] | 0.026
Cc1cc(-n2nc3c(c2-n2ccn(-c4ccc5c(c4F)CN=S5(=O)C4CC4)c2=O)[C@H](C)N(C(=O)c2cc4cc([C@H]5CCOC(C)(C)C5)ccc4n2[C@@]2(c4noc(=O)[nH]4)C[C@@H]2C)CC3)cc(C)c1F (single isomer, unassigned) [Compound 192] | 0.02
CN=S(=O)(c1ccc(-n2ccn(-c3c4c(nn3-c3cc(C)c(F)c(C)c3)CCN(C(=O)c3cc5cc([C@H]6CCOC(C)(C)C6)ccc5n3[C@@]3(c5noc(=O)[nH]5)C[C@@H]3C)[C@H]4C)c2=O)c(Cl)c1)C1CC1 (single isomer, unassigned) [Compound 204] | 0.039
Cc1cc(-n2nc3c(c2-n2ccn(-c4ccc5c(c4)CCCN=S5(=O)C4CC4)c2=O)[C@H](C)N(C(=O)c2cc4cc([C@H]5CCOC(C)(C)C5)ccc4n2[C@@]2(c4noc(=O)[nH]4)C[C@@H]2C)CC3)cc(C)c1F (single isomer, unassigned) [Compound 213] | 0.12
Cc1cc(-n2nc3c(c2-n2ccn(-c4ccc(S(C)(=N)=O)cc4)c2=O)[C@H](C)N(C(=O)c2cc4cc(C5CCOCC5)ccc4n2-c2cccc(S(=O)(=O)Nc4ncccn4)c2)CC3)cc(C)c1F (some centres unmarked) [Compound 119] | 1
C[C@H]1c2c(nn(-c3ccc(F)c(C4CC4)c3)c2-n2ccn(-c3ccc(S(C)(=N)=O)cc3)c2=O)CCN1C(=O)c1cc2cc(C3CCOCC3)ccc2n1[C@@]1(c2noc(=O)[nH]2)C[C@@H]1C (some centres unmarked) [Compound 118] | 0.04
Cc1cc(-n2nc3c(c2-n2ccn(-c4ccc(S(C)(=N)=O)cc4)c2=O)[C@H](C)N(C(=O)c2cn4cc(C5CCOCC5)ccc4c2C2(c4noc(=O)[nH]4)CC2)CC3)cc(C)c1F (some centres unmarked) [Compound 109] | 0.27
CCS(=O)(=NC)c1ccc(-n2ccn(-c3c4c(nn3-c3cc(C)c(F)c(C)c3)CCN(C(=O)c3cc5cc(C6CCOCC6)ccc5n3Cc3cnc(C)cn3)[C@H]4C)c2=O)c(F)c1 (single isomer, unassigned) [Compound 170] | 1.8
CN=S(=O)(c1ccc(-n2ccn(-c3c4c(nn3-c3cc(C)c(F)c(C)c3)CCN(C(=O)c3cc5cc([C@H]6CCOC(C)(C)C6)ccc5n3[C@@]3(c5noc(=O)[nH]5)C[C@@H]3C)[C@H]4C)c2=O)c(F)c1C(C)C)C1CC1 (single isomer, unassigned) [Compound 220] | 0.134
CN=S(=O)(c1ccc(-n2ccn(-c3c4c(nn3-c3cc(C)c(Cl)c(C)c3)CCN(C(=O)c3cc5cc([C@H]6CCOC(C)(C)C6)ccc5n3[C@@]3(c5noc(=O)[nH]5)C[C@@H]3C)[C@H]4C)c2=O)c(F)c1)C1CC1 (single isomer, unassigned) [Compound 203] | 0.032
CCS(=N)(=O)c1ccc(-n2ccn(-c3c4c(nn3-c3ccc(F)c(C5CC5)c3)CCN(C(=O)c3cc5cc(C6CCOCC6)ccc5n3[C@@]3(c5noc(=O)[nH]5)C[C@@H]3C)[C@H]4C)c2=O)c(F)c1 (single isomer, unassigned) [Compound 167] | 0.12
CN=S(=O)(c1cc(F)c(-n2ccn(-c3c4c(nn3-c3cc(C)c(F)c(C)c3)CCN(C(=O)c3cc5cc([C@H]6CCOC(C)(C)C6)ccc5n3[C@@]3(c5noc(=O)[nH]5)C[C@@H]3C)[C@H]4C)c2=O)cc1C)C1CC1 (single isomer, unassigned) [Compound 194] | 0.046
